Data as given in PubChem BioAssay AID330 (DTP/NCI, 2004).
Values joined by “and” are separate entries in the source; they are usually repeats but may differ in a detail not shown here. Equal entries are not always repeated. Inconclusive results and toxic doses are left out.

Tested on: P388 leukemia ip, CD2F1 mice, survival T/C
Test: NCI In Vivo Anticancer Drug Screen. Data for tumor model P388 Leukemia (intraperitoneal) in CD2F1 (CDF1) mice
Settings: endpoint: median survival time, higher = longer survival
How it was run: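 Mice carrying the transplanted tumor received test compound or vehicle. Survival was recorded in each group, and the value is the treated-group measurement divided by that of the vehicle-treated control group.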

[1] = dose: 50.0 mg/kg/injection, schedule: Q01DX009 (ip), vehicle: saline with Tween-80
[2] = dose: 100.0 mg/kg/injection, schedule: Q01DX009 (ip), vehicle: saline with Tween-80
[3] = dose: 200.0 mg/kg/injection, schedule: Q01DX009 (ip), vehicle: saline with Tween-80
[4] = dose: 50.0 mg/kg/injection, schedule: Q01DX005 (ip), vehicle: Klucel (hydroxypropylcellulose) (HPC)
[5] = dose: 100.0 mg/kg/injection, schedule: Q01DX005 (ip), vehicle: Klucel (hydroxypropylcellulose) (HPC)
[6] = dose: 50.0 mg/kg/injection, schedule: Q01DX005 (ip), vehicle: saline with Tween-80
[7] = dose: 100.0 mg/kg/injection, schedule: Q01DX005 (ip), vehicle: saline with Tween-80
[8] = dose: 200.0 mg/kg/injection, schedule: Q01DX005 (ip), vehicle: saline with Tween-80
[9] = dose: 25.0 mg/kg/injection, schedule: Q01DX005 (ip), vehicle: saline with Tween-80

## CCOP(=O)(Nc1cc(C)ccc1C)OCC
dose: 50.0 mg/kg/injection, schedule: Q01DX009 (ip), vehicle: saline
  T/C: 100 % of control
dose: 100.0 mg/kg/injection, schedule: Q01DX001 (ip), vehicle: saline with Tween-80
  T/C: 105 % of control
dose: 100.0 mg/kg/injection, schedule: Q01DX009 (ip), vehicle: saline
  T/C: 104 % of control
dose: 200.0 mg/kg/injection, schedule: Q01DX001 (ip), vehicle: saline with Tween-80
  T/C: 112 % of control
dose: 200.0 mg/kg/injection, schedule: Q01DX009 (ip), vehicle: saline
  T/C: 106 % of control
dose: 400.0 mg/kg/injection, schedule: Q01DX001 (ip), vehicle: saline with Tween-80
  T/C: 109 % of control

## O=C(c1ccccc1)C(c1ccccc1)n1ncc2c1CCOC2 (centres undefined)
dose: 100.0 mg/kg/injection, schedule: Q04DX003 (ip), vehicle: Klucel (hydroxypropylcellulose) (HPC)
  T/C: 105 % of control
dose: 200.0 mg/kg/injection, schedule: Q04DX003 (ip), vehicle: Klucel (hydroxypropylcellulose) (HPC)
  T/C: 96 % of control
dose: 400.0 mg/kg/injection, schedule: Q04DX003 (ip), vehicle: Klucel (hydroxypropylcellulose) (HPC)
  T/C: 108 % of control

## Cc1ccc(-c2cssc2=S)cc1
dose: 25.0 mg/kg/injection, schedule: Q01DX009 (ip), vehicle: saline with Tween-80
  T/C: 96 % of control
[1]
  T/C: 95 % of control
[2]
  T/C: 92 % of control
[3]
  T/C: 90 % of control

## CC1(C)CCCC2=C1C(=O)N(SC(Cl)(Cl)Cl)C2=O
dose: 12.5 mg/kg/injection, schedule: Q01DX005 (ip), vehicle: Klucel (hydroxypropylcellulose) (HPC)
  T/C: 102 % of control
dose: 25.0 mg/kg/injection, schedule: Q01DX005 (ip), vehicle: Klucel (hydroxypropylcellulose) (HPC)
  T/C: 121 % of control
[4]
  T/C: 121 % of control and 123 % of control
[5]
  T/C: 122 % of control

## COC(=O)C1=C(C(=O)OC)[C@@H]2CC[C@H]1[C@H]1[C@@H]2N=NN1c1ccccc1
[6]
  T/C: 106 % of control
[7]
  T/C: 86 % of control
[8]
  T/C: 99 % of control

## CNC(C)C1(O)Cc2c(O)c3c(c(O)c2C(OC2CC(N)C(O)C(C)O2)C1)C(=O)c1c(OC)cccc1C3=O (centres undefined)
dose: 4.0 mg/kg/injection, schedule: Q01DX009 (ip), vehicle: water
  T/C: 150 % of control
dose: 8.0 mg/kg/injection, schedule: Q01DX009 (ip), vehicle: water
  T/C: 157 % of control and 161 % of control
dose: 16.0 mg/kg/injection, schedule: Q01DX009 (ip), vehicle: water
  T/C: 95 % of control

## COc1cc(C(Nc2ccccn2)c2cc3c(cc2O)OCO3)cc(OC)c1O (centres undefined)
dose: 60.0 mg/kg/injection, schedule: Q01DX005 (ip), vehicle: Klucel (hydroxypropylcellulose) (HPC)
  T/C: 91 % of control
dose: 120.0 mg/kg/injection, schedule: Q01DX005 (ip), vehicle: Klucel (hydroxypropylcellulose) (HPC)
  T/C: 91 % of control
dose: 240.0 mg/kg/injection, schedule: Q01DX005 (ip), vehicle: Klucel (hydroxypropylcellulose) (HPC)
  T/C: 94 % of control

## CNC(=O)OCc1c(COC(=O)NC)c2n(c1C)CCS2(=O)=O
[9]
  T/C: 106 % of control
[6]
  T/C: 101 % of control
[7]
  T/C: 86 % of control
[8]
  T/C: 88 % of control

## CCOC(=O)C(/C=N\c1[nH]ncc1C#N)=C(/C(=O)OCC)c1ccc(O)cc1
[4]
  T/C: 110 % of control
[5]
  T/C: 105 % of control
dose: 200.0 mg/kg/injection, schedule: Q01DX005 (ip), vehicle: Klucel (hydroxypropylcellulose) (HPC)
  T/C: 105 % of control

## CC(C)C1OCN2C(C)CCCC12 (centres undefined)
dose: 50.0 mg/kg/injection, schedule: Q01DX005 (ip), vehicle: saline
  T/C: 105 % of control
dose: 100.0 mg/kg/injection, schedule: Q01DX005 (ip), vehicle: saline
  T/C: 111 % of control
dose: 200.0 mg/kg/injection, schedule: Q01DX005 (ip), vehicle: saline
  T/C: 111 % of control

## COC1/C=C/OC2(C)Oc3c(C)c(O)c4c(O)c(c(/C=N/N5CCCN(C)CC5)c(O)c4c3C2=O)NC(=O)/C(C)=C\C=C\C(C)C(O)C(C)C(O)C(C)C(OC(C)=O)C1C (centres undefined)
[1]
  T/C: 104 % of control
[2]
  T/C: 100 % of control
[3]
  T/C: 102 % of control

## COc1cccc2cc(-n3nnc4cc([N+](=O)[O-])ccc43)c(=O)oc12
dose: 12.5 mg/kg/injection, schedule: Q01DX005 (ip), vehicle: saline with Tween-80
  T/C: 95 % of control
[9]
  T/C: 93 % of control
[6]
  T/C: 92 % of control and 95 % of control
[7]
  T/C: 97 % of control
[8]
  T/C: 98 % of control
